These results are taken from patent US12616663B2, “Plant-derived exosome-like nanoparticles inhibit bacterial pathogenicity” (priority 2019, dated 2026).

The subject of assay [1] is P. gingivalis. The assay can be described thus: Bacterial growth, optical density at 600 nm. The class given is cell-based, Porphyromonas gingivalis. The procedure: Bacterial strain and growth condition. P. gingivalis 33277 was cultured in tryptic soy broth supplemented with yeast extract (1 mg/ml), hemin (5 μg/ml) and menadione (1 μg/ml) and incubated at 37° C. in anaerobic chamber (85% N2, 10% H2, 5% CO2). S. gordonii DL1 was cultured in brain-heart infusion broth media containing 0.5% yeast extract and incubated at anaerobically at 37° C.
Bacterial growth. […] P. gingivalis and S. gordonii growth was determined by measuring optical density at 600 nm.

Assay [2] concerns P. gingivalis attachment to TIGK cells. The assay can be described thus: Attachment of P. gingivalis to epithelial cells (ELISA, confocal microscopy). Particulars: GELNs vs PBS; total lipids (from 4.0×10^8 particles), 50 nM PA (34:2) vs DMSO; miRNAs vs scrambled control. It is filed as cell-based, Porphyromonas gingivalis; human TIGK cells. The procedure:
Culture of TIGK cells. Human telomerase immortalized keratinocytes (TIGKs) derived from gingival epithelium were obtained from Dr. Lamont Laboratory and maintained at 37° C. and 5% CO2 in DERMALIFE®-K brand serum free culture medium (Lifeline Cell Technology, Carlsbad, California, United States of America).
Attachment to epithelial cells. The amount of P. gingivalis attachment to the surface of gingival epithelial cells were determined. Briefly, telomerase immortalized gingival keratinocytes (TIGKs), derived from primary gingival epithelial cell lines, were cultured in 96-well plates for 24 hours. Then, the cells were fixed with 5% buffered formalin for 1 hour, and washed with PBS. […] Cells were washed with PBS to remove non-adherent bacteria. Then, wells were incubated with P. gingivalis whole-cell antibodies (1:10,000) at 37° C. for 1 hour, then washed with PBS. Binding was detected with a secondary horse radish peroxidase (HRP)-anti-rabbit antibody (1:5,000) and 3,3′,5,5′-tetramethylbenzidine substrate (Sigma), and recorded at 450 nm.
Then, the TIGK cells were fixed with 5% buffered formalin for 10 minutes. P. gingivalis cells were stained with an antibody raised against P. gingivalis (1:1000 dilution) incubated for 3 hour at room temperature. After extensive washing with PBS, cells were incubated with ALEXAFLUOR® 568-conjugated IgG (1:5000 dilution) for 1 hour at room temperature. […]

In assay [3] the test system is P. gingivalis total cell lysates. The assay can be described thus: SPR: P. gingivalis total cell lysates run over immobilized liposomes. The class given is binding, Porphyromonas gingivalis. Particulars: LIP-1 sensor, total cell lysates as analyte. Here is the method:
(§1) Liposome preparation. Total lipids from ginger exosome-like nanoparticles (GELNs) were extracted with chloroform:methanol (2:1, v/v). Thin layer chromatography (TLC) was performed with standard PA(34:2). The corresponding PA band was excised from the TLC plate and remaining bands were pool together. GELNs total lipids, PA depleted lipids and PA(34:2) were completely dried under stream of nitrogen gas. The lipid film was suspended in HEPES-buffered saline (HBS) running buffer (20 mM HEPES, 150 mM NaCl, pH 7.4) and gently vortexed and sonicated for 10 minutes until clear solution was formed. The liposome suspension was extruded through a poly carbonated membrane filter syringe with pore size of 100 nm. The size of liposome was confirmed by NanoSight NS300 (Malvern Panalytical Inc, MA, USA). Total lipids were determined by measuring total phosphate levels.
Surface Plasmon Resonance (SPR). SPR experiments were conducted on an OPENSPR™ (Nicoya, Lifesciences, ON, CA). All experiments were carried on LIP-1 sensor (Nicoya, Lifesciences). Tests were run at flow rate of 20 μl/minute using HBS running buffer (20 mM HEPES, 150 mM NaCl, pH 7.4). First, LIP-1 sensor chip was cleaned with Octyl 0-D-glucopyranoside (40 mM) and CHAPS (20 mM). […] The sensograms were analyzed using TRACEDRAWER™ brand kinetic Analysis software. […]

The test system of assay [4] is outer membrane protein (OMP) mRNA. It is filed as cell-based, Porphyromonas gingivalis.
In assay [5] the test system is rod shape determining protein (RodA) mRNA. It is filed as cell-based, Porphyromonas gingivalis.
The subject of assay [6] is P. gingivalis invasion into TIGK cells. In words: P. gingivalis invasion, antibiotic protection assay (CFU). Particulars: GELNs total lipids or PA (34:2) vs DMSO control; miRNA-transduced bacteria. The class given is cell-based, Porphyromonas gingivalis; human TIGK cells.
The subject of the next assay is hemagglutinin (HA) mRNA. It is filed as cell-based, Porphyromonas gingivalis.
The next assay has as its system fimbrillin (fimA). In words: fimA expression (real-time PCR, western blot). Particulars: GELNs, total lipids or PA (34:2) 6 hours vs DMSO. It is filed as cell-based, Porphyromonas gingivalis. The procedure:
(§2) RNA isolation and quantitative real time PCR (qRT-PCR). Total RNA was isolated from P. gingivalis and TIGK cells using TRIZOL™ brand reagent according to the manufacturer's protocol (Invitrogen). RNA (1 μg) was converted into cDNA with ISCRIPT™ brand cDNA synthesis kit (Bio-Rad, Hercules, California, United States of America). qRT-PCR was performed for quantification of gene expression, cDNA samples were amplified with SSOFAST™ EVAGREEN® Supermix brand qRT-PCR cocktail in CFX96 Real-time PCR system (Bio-Rad). The mRNA expression was quantified by ΔΔCt method using 16S rRNA expression as an internal control for bacterial gene expression.
A general note: In qPCR the cycle at which signal appears reflects the starting amount.

In assay [7] the test system is P. gingivalis. The assay can be described thus: Gliding motility in U shaped glass tube with 0.2% agar. The class given is cell-based, Porphyromonas gingivalis. Particulars: GELNs 4.0×10^8 particles/ml, PA (34:2) 5 μg/ml vs PBS; miRNAs vs scrambled miRNA; 48 hours. The procedure: Gliding motility. Gliding motility of P. gingivalis was measured. P. gingivalis was reacted with GELNs (4×10^8 particles/ml) or total lipids extracted from GELNs or miRNAs such as aly-miR-159a-3p, gma-miR166u, and gma-miR166p. A sterile “U” shaped glass tube containing 0.2% agar as suspension medium was produced. P. gingivalis (100 μl) was inoculated one edge of the tube and incubated at anaerobic chamber for 48 hours, the location of bacteria was visualized by cloudiness, and distance movement of P. gingivalis was calculated.
Transferring gingipain from intracellular locations to the cell surface is a critical step in the pathogenesis of P. gingivalis. Gingipains are synthesized with an N-terminal signal peptide targeting them to the Sec translocon where they are exported through the outer-membranes via a novel secretion system referred to as type IX Secretion System (T9SS). T9SS plays a critical role in bacterial gliding motility that could contribute to P. gingivalis pathogenesis. Therefore, it was determined whether GELNs, GELN-derived miRNAs, and/or GELN lipids could play a role in inhibition of gliding motility of P. gingivalis. P. gingivalis were pretreated with GELNs (4.0×10^8 particles/ml) or PA (34:2; 5 μg/ml) or transduced with GELN-derived aly-miR159a, gma-miR166u, or gma-miR166p. […]

Assay [8] deals with T9SS family members porK, porL, porM, porN, porP, porQ, porT, porV, porW, porX, porY, and sov. The assay can be described thus: qPCR of T9SS family member expression. To be noted: GELNs 4.0×10^8 particles/ml, lipids from 4.0×10^8 particles, 5 μg PA (34:2) 6 hours; miRNAs 24 hours vs scrambled. The class given is cell-based, Porphyromonas gingivalis. The procedure:
as §2
To further determine the molecular mechanisms underlying GELN-mediated inhibition of P. gingivalis gliding motility, the roles of GELNs, GELNs lipids, and GELN-derived miRNAs in modulating the expression of genes related to T9SS were determined. P. gingivalis was treated with GELNs (4.0×10^8 particles/ml) and GELNs lipids derived from 4.0×10^8 particles and 5 μg of PA (34:2) for 6 hours, and miRNAs aly-miR159a, gma-miR166u, and gma-miR166p were transduced into P. gingivalis by incubation for 24 hours. […] Further, it was determined that aly-miR159a-3p has potential binding sites in the T9SS C-terminal target domain containing protein PGN_0152; see FIG. 8H).

Assay [9] relates to AraC transcription factor mRNA. It is filed as cell-based, Porphyromonas gingivalis.
Assay [10] concerns arginine-specific (Rgp) gingipain. In words: Gingipain proteolytic activity (N-benzoyl-L-arginine-pNA). It is filed as cell-based, Porphyromonas gingivalis. To be noted: GELNs and GELN lipids 2×10^8 and 4×10^8 particles/ml vs PBS control; PA(34:2), aly-miR159a vs control. Here is the method:
Gingipain proteolytic activity. The proteolytic activity of arginine-specific (Rgp) and lysine specific (Kgp) gingipain was measured. P. gingivalis was cultured to mid-log phase and treated with and without GELNs (2.0-4.0×10^8 particles/ml) for 6 hour. The bacterial cells were collected by centrifugation at 5000 g for 10 minutes, washed, and lysed with BUGBUSTER® brand lysis reagent (Millipore Sigma, Burlington, MA, USA). The chromogenic p-nitroanilide substrates N-benzoyl-L-arginine-pNA or toluenesulfonyl-glycyl-prolyl-L-lysine-pNA (Sigma) were used to measure RgpA/B and Kgp respectively. Bacterial cell lysates (50 μl) were pre-incubated with assay buffer containing 200 mM Tris-HCl, 5 mM CaCl2/150 mM NaCl and supplemented with 10 mM cysteine in 96-well plate, incubated at 37° C. for 10 minutes, and 0.5 mM of specific substrate was added to each well. The rate of substrate hydrolysis and accumulation of p-nitroanillide was monitored spectrophotometrically at 405 nm. The enzyme activity was calculated and given as mOD/min/μl.

For assay [11], the system named is HBP35 synthetic peptide (functional domain of hemin binding protein 35). The assay can be described thus: SPR: HBP35 synthetic peptide as analyte over immobilized liposomes. Details: species or system Porphyromonas gingivalis. To be noted: liposomes immobilized on LIP-1 sensor; non-specific peptide as negative control. The procedure:
as §1, with “The size of liposome was confirmed by NanoSight NS300 (Malvern Panalytical Inc, MA, USA).” left out
Surface Plasmon Resonance (SPR). […] The sensograms were analyzed using TRACEDRAWER™ brand kinetic Analysis software.
Whether the HBP35 synthetic peptide directly bound to PA (34:2) and/or PA (34:1) of GELNs lipids was also tested. […] The lipid-protein interactions were determined by SPR sensograms. Fluorescent confocal micrographs of P. gingivalis labelled with PKH67 (green fluorescence) and GELNs and LipidG liposomes were labelled with PKH26 (red fluorescence). […] Particles and liposomes taken up by P. gingivalis were also quantified by flow cytometry. […]
In general terms: In SPR one partner is held on a chip, and binding of the other changes the refractive index at the surface.

Assay [12] addresses T1, lysine specific (Kgp) gingipain (Porphyromonas gingivalis, UniProt B2RLK2).
T1 construct: endogenous in cells; host or cells: Porphyromonas gingivalis, BugBuster lysate of treated bacteria
The class given is cell-based. To be noted: GELNs and GELN lipids 2×10^8 and 4×10^8 particles/ml vs PBS control; PA(34:2), aly-miR159a vs control.

On to “WPRVGQLFIALDQTLGIPGFPTFSVCRME [HBP35 synthetic peptide]”, for which, in the assay with P. gingivalis [1] (GELN total lipids (4.0 and 6.0×10^8 particles) pre-incubated with peptide), the “blocking of GELN lipid-mediated inhibition of P. gingivalis growth” value is reported as “significantly blocked”. Moreover, the “blocking of PA-mediated inhibition of P. gingivalis growth” value with P. gingivalis [1] (PA (34:2) pre-incubated with peptide) was “significantly blocked”.
`CCCCC/C=C\C/C=C\CCCCCCCC(=O)O[C@H](COC(=O)CCCCCCCCCCCCCCC)COP(=O)(O)O` [PA (34:2), 1-palmitoyl-2-linoleoyl-sn-glycero-3-phosphate]: the “surface attachment of P. gingivalis to TIGK cells (ELISA)” value in [2] is listed as “significantly inhibited surface attachment”. The “interaction of P. gingivalis proteins with immobilized nanoparticles (SPR sensograms)” value in assay [3] is on record as “able to interact”. In addition, the “outer membrane protein (OMP) mRNA expression” value in assay [4] is recorded as “inhibited”. The “RodA mRNA expression” value in assay [5] is “inhibited”. In addition, in the assay on P. gingivalis [1] (0-50 μg/ml tested, 24 hours, very low concentration compared to other lipid compounds), the “concentration at which P. gingivalis growth was inhibited” value came to 5 µg/mL. The “P. gingivalis invasion into TIGK cells” value in assay [6] is recorded as “significant decrease”. Besides, the “hemagglutinin (HA) mRNA expression” value in the assay on hemagglutinin (HA) mRNA is given as “not significant”. In the assay with fimbrillin (fimA), the “fimA expression (mRNA and protein levels)” value is reported as “significantly decreased”. The “gliding motility of P. gingivalis” value with P. gingivalis [7] is reported as “significantly inhibited the motility”. For the same compound, the “T9SS family members whose expression was significantly inhibited” value in assay [8] is 9/12. In addition, the “AraC mRNA expression” value in assay [9] was “inhibited”. Besides, the “arginine-specific (Rgp) gingipain activity” value in assay [10] is listed as “contributed to inhibit”. Also, in assay [11], the “direct interaction with HBP35 synthetic peptide (SPR sensogram peaks)” value is given as “directly interacted”. Besides, the “lysine-specific (Kgp) gingipain activity” value in assay [12] is given as “contributed to inhibit”.
